Data reported in PubChem BioAssay (NCI).
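Cultured in 96-well plates, cells were exposed to test compound for 48 hours across five concentrations. Definition used: TGI = concentration required for complete inhibition of growth.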

Assays:
Test in all cases: NCI anticancer screen, dose series, 48 h
RXF 393 renal = test system: RXF 393 renal
SNB-19 CNS = test system: SNB-19 CNS
UACC-62 melanoma = test system: UACC-62 melanoma
SK-MEL-2 melanoma = test system: SK-MEL-2 melanoma
HOP-62 NSCLC = test system: HOP-62 NSCLC
A498 renal = test system: A498 renal
SK-MEL-28 melanoma = test system: SK-MEL-28 melanoma
HT29 colon = test system: HT29 colon
NCI/ADR-RES ovarian = test system: NCI/ADR-RES ovarian
OVCAR-5 ovarian = test system: OVCAR-5 ovarian
OVCAR-3 ovarian = test system: OVCAR-3 ovarian
MDA-MB-435 = test system: MDA-MB-435
SF-268 CNS = test system: SF-268 CNS
LOX IMVI melanoma = test system: LOX IMVI melanoma
PC-3 prostate = test system: PC-3 prostate
HCC-2998 colon = test system: HCC-2998 colon
MOLT-4 leukemia = test system: MOLT-4 leukemia
SK-MEL-5 melanoma = test system: SK-MEL-5 melanoma
SNB-75 CNS = test system: SNB-75 CNS
U251 CNS = test system: U251 CNS
OVCAR-4 ovarian = test system: OVCAR-4 ovarian
EKVX NSCLC = test system: EKVX NSCLC
SF-539 CNS = test system: SF-539 CNS
MALME-3M melanoma = test system: MALME-3M melanoma
UO-31 renal = test system: UO-31 renal
HL-60(TB) leukemia = test system: HL-60(TB) leukemia
RPMI-8226 leukemia = test system: RPMI-8226 leukemia
NCI-H226 lung = test system: NCI-H226 lung
CCRF-CEM leukemia = test system: CCRF-CEM leukemia
A549 NSCLC = test system: A549 NSCLC
SN12C renal = test system: SN12C renal
HCT-116 colon = test system: HCT-116 colon
T-47D breast = test system: T-47D breast
SW-620 colon = test system: SW-620 colon
NCI-H23 lung = test system: NCI-H23 lung
BT-549 breast = test system: BT-549 breast
HS 578T breast = test system: HS 578T breast
NCI-H522 lung = test system: NCI-H522 lung
IGROV1 ovarian = test system: IGROV1 ovarian
HCT-15 colon = test system: HCT-15 colon
ACHN renal = test system: ACHN renal
K-562 leukemia = test system: K-562 leukemia
SR leukemia = test system: SR leukemia
SF-295 CNS = test system: SF-295 CNS
DU-145 prostate = test system: DU-145 prostate
MCF7 breast = test system: MCF7 breast
CAKI-1 renal = test system: CAKI-1 renal
TK-10 renal = test system: TK-10 renal
NCI-H460 lung = test system: NCI-H460 lung
786-0 renal = test system: 786-0 renal
COLO 205 colon = test system: COLO 205 colon
KM12 colon = test system: KM12 colon
SK-OV-3 ovarian = test system: SK-OV-3 ovarian
UACC-257 melanoma = test system: UACC-257 melanoma
OVCAR-8 ovarian = test system: OVCAR-8 ovarian
MDA-MB-231 breast = test system: MDA-MB-231 breast
M14 melanoma = test system: M14 melanoma
MDA-N = test system: MDA-N
HOP-92 NSCLC = test system: HOP-92 NSCLC

Nc1nc(Cl)c(N)c(NCC2(CO)CC2)n1
TGI (RXF 393 renal): > 100 µM | TGI (SNB-19 CNS): > 100 µM | TGI (UACC-62 melanoma): > 100 µM | TGI (SK-MEL-2 melanoma): > 100 µM | TGI (HOP-62 NSCLC): > 100 µM | TGI (A498 renal): > 100 µM | TGI (SK-MEL-28 melanoma): > 100 µM | TGI (HT29 colon): > 100 µM | TGI (NCI/ADR-RES ovarian): > 100 µM | TGI (OVCAR-5 ovarian): > 100 µM | TGI (OVCAR-3 ovarian): > 100 µM | TGI (MDA-MB-435): > 100 µM | TGI (SF-268 CNS): > 100 µM | TGI (LOX IMVI melanoma): > 100 µM | TGI (PC-3 prostate): > 100 µM | TGI (HCC-2998 colon): > 100 µM | TGI (MOLT-4 leukemia): > 100 µM | TGI (SK-MEL-5 melanoma): > 100 µM | TGI (SNB-75 CNS): > 100 µM | TGI (U251 CNS): > 100 µM | TGI (OVCAR-4 ovarian): > 100 µM | TGI (EKVX NSCLC): > 100 µM | TGI (SF-539 CNS): > 100 µM | TGI (MALME-3M melanoma): > 100 µM | TGI (UO-31 renal): > 100 µM | TGI (HL-60(TB) leukemia): > 100 µM | TGI (RPMI-8226 leukemia): > 100 µM | TGI (NCI-H226 lung): > 100 µM | TGI (CCRF-CEM leukemia): > 100 µM | TGI (A549 NSCLC): > 100 µM | TGI (SN12C renal): > 100 µM | TGI (HCT-116 colon): > 100 µM | TGI (T-47D breast): > 100 µM | TGI (SW-620 colon): > 100 µM | TGI (NCI-H23 lung): > 100 µM | TGI (BT-549 breast): > 100 µM | TGI (HS 578T breast): > 100 µM | TGI (NCI-H522 lung): > 100 µM | TGI (IGROV1 ovarian): > 100 µM | TGI (HCT-15 colon): > 100 µM | TGI (ACHN renal): > 100 µM | TGI (K-562 leukemia): > 100 µM | TGI (SR leukemia): > 100 µM | TGI (SF-295 CNS): > 100 µM | TGI (DU-145 prostate): > 100 µM | TGI (MCF7 breast): > 100 µM | TGI (CAKI-1 renal): > 100 µM | TGI (TK-10 renal): > 100 µM | TGI (NCI-H460 lung): > 100 µM | TGI (786-0 renal): > 100 µM | TGI (COLO 205 colon): > 100 µM | TGI (KM12 colon): > 100 µM | TGI (SK-OV-3 ovarian): > 100 µM | TGI (UACC-257 melanoma): > 100 µM | TGI (OVCAR-8 ovarian): > 100 µM | TGI (MDA-MB-231 breast): > 100 µM | TGI (M14 melanoma): > 100 µM | TGI (MDA-N): > 100 µM | TGI (HOP-92 NSCLC): > 100 µM

CCOC(=O)c1cc2cc3c4c(c2oc1=O)CCCN4CCC3
TGI (RXF 393 renal): 39.4 µM | TGI (SNB-19 CNS): > 100 µM | TGI (SK-MEL-2 melanoma): > 100 µM | TGI (HOP-62 NSCLC): > 100 µM | TGI (A498 renal): 79 µM | TGI (SK-MEL-28 melanoma): > 100 µM | TGI (HT29 colon): > 100 µM | TGI (NCI/ADR-RES ovarian): 72.9 µM | TGI (OVCAR-5 ovarian): > 100 µM | TGI (OVCAR-3 ovarian): 93.9 µM | TGI (MDA-MB-435): 83.5 µM | TGI (SF-268 CNS): 71.3 µM | TGI (LOX IMVI melanoma): 62.7 µM | TGI (PC-3 prostate): 97.5 µM | TGI (HCC-2998 colon): > 100 µM | TGI (MOLT-4 leukemia): 62.9 µM | TGI (SK-MEL-5 melanoma): 26.8 µM | TGI (U251 CNS): > 100 µM | TGI (OVCAR-4 ovarian): > 100 µM | TGI (EKVX NSCLC): 80 µM | TGI (SF-539 CNS): 58.2 µM | TGI (MALME-3M melanoma): > 100 µM | TGI (UO-31 renal): > 100 µM | TGI (HL-60(TB) leukemia): 45.8 µM | TGI (RPMI-8226 leukemia): 49.3 µM | TGI (NCI-H226 lung): 51.3 µM | TGI (CCRF-CEM leukemia): > 100 µM | TGI (A549 NSCLC): > 100 µM | TGI (SN12C renal): > 100 µM | TGI (HCT-116 colon): 79 µM | TGI (T-47D breast): 53.6 µM | TGI (SW-620 colon): > 100 µM | TGI (NCI-H23 lung): > 100 µM | TGI (BT-549 breast): > 100 µM | TGI (HS 578T breast): 89.2 µM | TGI (NCI-H522 lung): 45.6 µM | TGI (IGROV1 ovarian): > 100 µM | TGI (HCT-15 colon): > 100 µM | TGI (ACHN renal): > 100 µM | TGI (K-562 leukemia): > 100 µM | TGI (SR leukemia): > 100 µM | TGI (SF-295 CNS): > 100 µM | TGI (DU-145 prostate): > 100 µM | TGI (MCF7 breast): 56.3 µM | TGI (CAKI-1 renal): > 100 µM | TGI (TK-10 renal): > 100 µM | TGI (NCI-H460 lung): > 100 µM | TGI (786-0 renal): > 100 µM | TGI (COLO 205 colon): 57.1 µM | TGI (KM12 colon): 61.9 µM | TGI (UACC-257 melanoma): > 100 µM | TGI (OVCAR-8 ovarian): 72.9 µM | TGI (MDA-MB-231 breast): 69.2 µM | TGI (M14 melanoma): > 100 µM | TGI (MDA-N): > 100 µM | TGI (HOP-92 NSCLC): 58 µM
